Where two headings read alike, the source gives them in different places.
How the values were obtained:
[1] = test system: endosomal and lysosomal pH; experiment: pH assay of endosomes and lysosomes in RAW 264.7; type: cell-based, mouse
Description: RAW 264.7 cells were seeded into black 96-well plates at […] cells per well and incubated overnight. After washing, the cells were treated with phenol-free RPMI 1640 medium (Gibco). Following 30 min of treatment with ETI41 or ETI60, cells were incubated with 20 µg/ml of pHrodo Red Dextran (Thermo Fisher Scientific) or 10 µM LysoSensor Yellow/Blue DND-160 (Thermo Fisher Scientific). Fluorescence was measured using a BioTek Synergy HTX Multimode Microplate Reader. Data were analyzed using the BioTek Gen5 software.
Fig. 3 Binding mechanism of ETI41 and ETI60 with TLR7 and TLR9. a ETI41 and ETI60 bind to the extracellular domain of TLR7. b Detailed intermolecular interactions ofETI41 and ETI60 are shown with the key residues of TLR7. c ETI41 and ETI60 bind to the extracellular domain of TLR9. d Intermolecular interactions of ETI41 and ETI60 with the key residues of TLR9. The asterisk indicates chain A of TLR7 and TLR9. ETI41 and ETI60 are depicted in ball-and-stick models. Bonds are represented by lines, with distances measured in ångström (Å) units. […] Data presented are from three independent experiments (n = 3), and statistical differences between the induced case and other cases were analyzed and verified using a one-tailed Student’s t-test (*P < 0.05, **P < 0.01, ***P < 0.001). […]

[2] = molecular target: T1, murine TLR9 (Mus musculus, UniProt Q9EQU3); experiment: SPR binding to TLR9
T1 construct: Fc; purchased R&D Systems
T1 sequence (Q9EQU3 with tags, fused parts or gaps limits assumed): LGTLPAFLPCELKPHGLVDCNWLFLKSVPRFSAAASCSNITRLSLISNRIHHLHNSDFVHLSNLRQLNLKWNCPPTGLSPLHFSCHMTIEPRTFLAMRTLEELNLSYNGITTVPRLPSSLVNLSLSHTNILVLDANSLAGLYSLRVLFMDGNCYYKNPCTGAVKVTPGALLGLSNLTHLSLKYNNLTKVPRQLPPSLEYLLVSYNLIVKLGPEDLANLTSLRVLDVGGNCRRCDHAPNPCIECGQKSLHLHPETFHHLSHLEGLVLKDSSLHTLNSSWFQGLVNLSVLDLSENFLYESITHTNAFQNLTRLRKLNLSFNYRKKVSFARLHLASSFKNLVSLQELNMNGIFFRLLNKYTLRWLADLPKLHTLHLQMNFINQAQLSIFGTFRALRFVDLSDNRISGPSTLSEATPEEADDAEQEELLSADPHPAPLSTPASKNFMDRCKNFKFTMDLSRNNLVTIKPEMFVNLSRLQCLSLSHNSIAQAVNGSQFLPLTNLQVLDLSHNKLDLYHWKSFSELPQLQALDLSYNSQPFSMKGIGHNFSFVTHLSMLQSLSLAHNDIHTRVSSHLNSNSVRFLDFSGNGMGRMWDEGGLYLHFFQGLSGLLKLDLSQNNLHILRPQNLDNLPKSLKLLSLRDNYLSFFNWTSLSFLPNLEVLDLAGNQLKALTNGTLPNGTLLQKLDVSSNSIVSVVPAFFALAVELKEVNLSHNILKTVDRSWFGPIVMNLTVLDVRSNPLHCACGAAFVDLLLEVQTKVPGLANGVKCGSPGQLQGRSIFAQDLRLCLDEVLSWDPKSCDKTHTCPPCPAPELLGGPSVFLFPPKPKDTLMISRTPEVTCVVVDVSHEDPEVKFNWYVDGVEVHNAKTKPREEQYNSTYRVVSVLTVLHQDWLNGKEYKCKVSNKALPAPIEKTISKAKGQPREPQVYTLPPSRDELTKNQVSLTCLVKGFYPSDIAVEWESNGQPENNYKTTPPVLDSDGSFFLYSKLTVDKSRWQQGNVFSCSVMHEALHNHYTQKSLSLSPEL
Description: Surface plasmon resonance (SPR) analysis was conducted using an SR7500DC SPR System (Reichert) with a CMDH chip for human TLR7 and murine TLR9 (R&D Systems) and a Biacore T200 platform (Cytiva) with a CM5 chip for TLR9–ODN binding. The running buffer contained 0.5% DMSO and phosphate-buffered saline, and 50 mM NaOH was used for regeneration. ETI series compounds were serially diluted from 500 μM and tested for binding affinity. Binding curves were analyzed using Scrubber2 and Biacore T200 evaluation softwares. The dissociation constants (KD) were calculated as KD = kd/ka.
SPR confirmed the binding mechanisms of ETI41 and ETI60 with TLR7 and TLR9, respectively, under three conditions: (a) early endosome (pH 7.4), (b) late endosome without CpG (pH 5.5) and (c) late endosome with CpG (pH 5.5). (a) Both ETI41 and ETI60 were measured for parameters indicating binding affinity, including the KD value presented in Table 3, and were further analyzed under conditions (b) and (c), depending on the presence or absence of ligand, to explain the binding mechanism occurring in TLR9.

[3] = test system: endosomal TLRs; experiment: Endosomal TLR-mediated TNF-α production, summary over cell lines; type: cell-based; conditions: dose-dependent, without inducing cytotoxic effects
Description: RAW 264.7 and differentiated THP-1 cells were seeded into 96-well plates at 2 × 10^4 cells per well, while Daudi cells were seeded at 5 × 10^4 cells per well. After stabilization for 30 min, cells were stimulated with specific TLR agonists for 4 or 24 h. Supernatants were diluted and transferred to precoated ELISA plates to measure TNF-α secretion using kits from Invitrogen. Optical absorbance was measured using a BioTek Synergy HTX multimode microplate reader, and data were interpolated using BioTek Gen5 software.
TLR activation triggers the NF-κB pathway, resulting in increased production of pro-inflammatory cytokines, such as TNF-α and IL-6.

[4] = MTT assay, cell survival in RAW 264.7; type: cell-based; conditions: mouse, RAW 264.7 cell line, read-out: LC50
Description: After 24 h, the supernatant was removed, and 500 μg/ml of 3-[4,5-dimethylthiazol-2-yl]-2,5 diphenyl tetrazolium bromide (MTT) solution (Invivogen) was added. After a 3 h incubation, the supernatant was removed, and DMSO was added to dissolve the formazan dye.
One-tailed paired Student’s t-tests were performed using Microsoft Excel (Microsoft). […] The therapeutic index was calculated as […]. Animal experimental results are expressed as mean ± standard deviation and analyzed using SPSS v.20 (IBM SPSS Statistics). Homogeneity of variance was assessed using Levene’s test.
Data are from at least three independent experiments (n = 3) and statistical differences between the induced case and other cases were analyzed and verified using a one-tailed Student’s t-test (*P < 0.05, **P < 0.01, ***P < 0.001).

[5] = acidic pH 5.5 (late endosome), without or with CpG
[6] = neutral pH 7.4 (early endosome)

SMILES	pH of endosomes containing TLR3, TLR7, TLR8 and TLR9 [1]	kd ([2]; Fc-TLR9, pH 7.4)	SPR binding to TLR9 [2, 5]	SPR binding to TLR9 [2, 6]	kon ([2]; pH 7.4, read-out: ka)	Toxicity tests (doses ranging from 150 to 300 mg/kg)	TNF-α production by RAW 264.7 and Daudi cells [3]	CC50 at 24 h [4]	Kd ([2]; Fc-TLR9, pH 7.4)	kon ([2]; Fc-TLR9, pH 7.4, read-out: ka)	Toxicity tests (in vivo)	CC50 at 24 h ([4]; RAW 264.7 cells)
Cc1cc2c(N)c3c(nc2n1CCCN(C)C)CCCCCC3 [ETI41]	did not significantly affect	0.191 s⁻¹	binding was detected only in the late endosomal state where the natural ligand is present	clear binding affinity	10 M⁻¹ s⁻¹	confirmed their safety	effectively inhibited	67.2 µM				
COc1ccc2c3c(N)c4c(nc3n(CCCN(C)C)c2c1)CCCC4 [ETI60]	did not significantly affect	0.106 s⁻¹	binding was detected only in the late endosomal state where the natural ligand is present	clear binding affinity			effectively inhibited		1500 µM	71 M⁻¹ s⁻¹	confirmed their safety	51.2 µM

— article PMC12508057, “Discovery of ETI41 and ETI60: novel selective endosomal Toll-like receptor inhibitors for the treatment of autoimmune diseases” (Experimental & Molecular Medicine, 2025)
